Source: patent US9597274B2, “Peptides and their use in the treatment of skin” (Avon Products, Inc., priority 2015, dated 2017)

Columns and labels:
[1] = system: Human dermal fibroblast cells; assay: Pro-collagen I secretion into the media (HTRF human pro-collagen I kit) after 48 h peptide treatment; assay type: cell-based; details: percent change relative to vehicle control
Protocol: (§1) Human dermal fibroblast cells were grown in a 96 well plate in DMEM media (available from Corning, N.Y.) supplemented with 10% Fetal Bovine Serum (FBS) and L-glutamine (0.07×10^5 cells/plate). After reaching about 75% confluence, cells were transferred into DMEM media without FBS and incubated for 4-6 hours. Next, cells were treated with a peptide at 0.00001%, 0.0001%, 0.001% final concentration in DMEM media without FBS for 48 h. After treatment, the media were collected and cell viability was measured using MTT. The amount of collagen secreted was tested in the media using HTRF human pro-collagen I kit (available from Cisbio Inc., Bedford, Mass.). The amount of secreted Hyaluronic Acid (HA) was tested in the media using HA Elisa kit (available from Corgenix, Broomfield, Colo.).
(§2) The results are summarized in Table 12 below as percent change of pro-collagen I and/or HA production relative to vehicle control (peptide concentrations provided in parentheses) using the following keys: […]

[2] = system: Human dermal fibroblast cells; assay: Secreted hyaluronic acid (HA) in the media (HA Elisa kit) after 48 h peptide treatment; assay type: cell-based; details: percent change relative to vehicle control
Protocol: as §1, §2

[3] = peptide tested at 0.00001%, 0.0001%, 0.001%, concentration not given

| Substance | Increase in Pro-Collagen I Production [1, 3] | Increase in HA Production ([2]; peptide concentration 0.001%) | Increase in Pro-Collagen I Production ([1]; peptide concentration 0.001%) | Increase in HA Production [2, 3] | Increase in HA Production ([2]; peptide concentration 0.0001%) |
| --- | --- | --- | --- | --- | --- |
| LRLK (listed as Homo sapiens) | 0 (0: <10%) | +(0.001%) (+: 20-50%) | – | – | – |
| QILSKLRL (listed as Homo sapiens) | – | – | +(0.001%) (+: 10-30%) | – | – |
| QPED (listed as Homo sapiens) | 0 (0: <10%) | – | – | 0 (0: <20%) | – |
| MVV (listed as Homo sapiens) | 0 (0: <10%) | – | – | – | +(0.0001%) (+: 20-50%) |
| LENTKRS (listed as Homo sapiens) | 0 (0: <10%) | – | – | 0 (0: <20%) | – |
| GDALQPE (listed as Homo sapiens) | 0 (0: <10%) | – | – | 0 (0: <20%) | – |
